This note sets out measurements from patent US8278282B2, “Nucleoside analogs for treatment of viral infections” (Novartis AG, priority 2007, dated 2012).

The test system of one experiment is yellow fever virus. Kind of experiment: microbe, parasite or virus in culture. It is filed as cell-based.
The test system of a further experiment is TSV01 dengue virus 2. Kind of experiment: Mouse model of dengue infection (viremia by plaque assay). Particulars: 25 mg/kg bid, compared to the control group.
For experiment [1], the system named is Japanese encephalitis virus. Kind of experiment: microbe, parasite or virus in culture. It is filed as cell-based.
The next experiment relates to dengue virus serotype 1. As to the kind of experiment: microbe, parasite or virus in culture. The format is cell-based.
In another experiment the test system is West Nile virus. Kind of experiment: microbe, parasite or virus in culture. The format is cell-based.
In a further experiment the test system is HCV replicon. As to the kind of experiment: Cell-based HCV replicon assay. Particulars: Hepatitis C virus.
For a further experiment, the system named is dengue virus serotype 4. Kind of experiment: microbe, parasite or virus in culture. The format is cell-based.
In another experiment the test system is dengue virus serotype 2. Kind of experiment: microbe, parasite or virus in culture. It is filed as cell-based.

For the molecule `C#C[C@@]1(O)[C@H](O)[C@@H](CO)O[C@H]1n1ccc2c(N)ncnc21` [Example 1, (2R,3R,4R,5R)-2-(4-Amino-pyrrolo[2,3-d]pyrimidin-7-yl)-3-ethynyl-5-hydroxymethyl-tetrahydrofuran-3,4-diol], the EC50 in the experiment on yellow fever virus is about 900 nM; in experiment [1] it was about 1300 nM; in the experiment on dengue virus serotype 1 it was about 200 nM; in the experiment on West Nile virus it was about 3750 nM; in the experiment with HCV replicon it was about 100 nM; with dengue virus serotype 4 it was about 200 nM. Also, the reduction in viremia result in the experiment on TSV01 dengue virus 2 is given as “about 20 fold”.
Regarding `C#C[C@@]1(O)[C@H](O)[C@@H](CO)O[C@H]1n1cc(F)c2c(N)ncnc21` [Example 4, (2R,3R,4R,5R)-2-(4-Amino-5-fluoro-pyrrolo[2,3-d]pyrimidin-7-yl)-3-ethynyl-5-hydroxymethyl-tetrahydrofuran-3,4-diol], the EC50 in the experiment on dengue virus serotype 2 was about 400 nM.
On the same count and under the same terms, the same measure for `C#Cc1cn([C@@H]2O[C@H](CO)[C@@H](O)[C@]2(O)C#C)c2ncnc(N)c12` [Example 8, (2R,3R,4R,5R)-2-(4-Amino-5-ethynyl-pyrrolo[2,3-d]pyrimidin-7-yl)-3-ethynyl-5-hydroxymethyl-tetrahydro-furan-3,4-diol]: about 600 nM.
